Results as given in BigSolDB 2.1.

O=C(O)c1cccc([N+](=O)[O-])c1C(=O)O
Conditions | solubility (mole fraction)
in 1,4-dioxane, 288.17 K | 0.0758
in 1,4-dioxane, 293.28 K | 0.0868
in 1,4-dioxane, 298.31 K | 0.097
in 1,4-dioxane, 303.29 K | 0.107
in 1,4-dioxane, 308.26 K | 0.116
in 1,4-dioxane, 313.2 K | 0.124
in 1,4-dioxane, 318.21 K | 0.132
in 1,4-dioxane, 323.29 K | 0.139
in 1,4-dioxane, 328.19 K | 0.146
in 1,4-dioxane, 333.18 K | 0.152
in 1,4-dioxane, 338.22 K | 0.158
in 1,4-dioxane, 343.16 K | 0.163
in 1,4-dioxane, 348.23 K | 0.167
in 1,4-dioxane, 353.32 K | 0.171
in THF, 278.28 K | 0.203
in THF, 283.17 K | 0.204
in THF, 288.16 K | 0.204
in THF, 293.21 K | 0.205
in THF, 298.29 K | 0.206
in THF, 303.28 K | 0.207
in THF, 308.19 K | 0.208
in THF, 313.23 K | 0.209
in THF, 318.24 K | 0.21
in THF, 323.16 K | 0.211
in THF, 328.19 K | 0.213
in THF, 333.17 K | 0.214
in acetone, 278.16 K | 0.0525
in acetone, 283.18 K | 0.0541
in acetone, 288.27 K | 0.056
in acetone, 293.33 K | 0.0582
in acetone, 298.24 K | 0.0604
in acetone, 303.19 K | 0.0629
in acetone, 308.32 K | 0.0657
in acetone, 313.16 K | 0.0685
in acetone, 318.2 K | 0.0717
in ethyl acetate, 283.2 K | 0.00793
in ethyl acetate, 288.26 K | 0.00847
in ethyl acetate, 293.28 K | 0.00902
in ethyl acetate, 298.19 K | 0.00958
in ethyl acetate, 303.21 K | 0.0102
in ethyl acetate, 308.3 K | 0.0109
in ethyl acetate, 313.16 K | 0.0116
in ethyl acetate, 318.22 K | 0.0124
in ethyl acetate, 323.16 K | 0.0134
in ethyl acetate, 328.23 K | 0.0144
in ethyl acetate, 333.17 K | 0.0156
in ethyl formate, 283.17 K | 0.00268
in ethyl formate, 288.18 K | 0.00287
in ethyl formate, 293.21 K | 0.00309
in ethyl formate, 298.26 K | 0.00335
in ethyl formate, 303.16 K | 0.00363
in ethyl formate, 308.19 K | 0.00396
in ethyl formate, 313.27 K | 0.00433
in ethyl formate, 318.25 K | 0.00473
in ethyl formate, 323.29 K | 0.00517
in methyl acetate, 278.17 K | 0.0334
in methyl acetate, 283.26 K | 0.0343
in methyl acetate, 288.27 K | 0.0353
in methyl acetate, 293.21 K | 0.0365
in methyl acetate, 298.24 K | 0.0378
in methyl acetate, 303.16 K | 0.0392
in methyl acetate, 308.22 K | 0.0407
in methyl acetate, 313.28 K | 0.0422
in methyl acetate, 318.17 K | 0.0437
in methyl acetate, 323.19 K | 0.0452
in n-butyl acetate, 283.18 K | 0.00243
in n-butyl acetate, 288.16 K | 0.00297
in n-butyl acetate, 293.21 K | 0.00353
in n-butyl acetate, 298.19 K | 0.0041
in n-butyl acetate, 303.22 K | 0.0047
in n-butyl acetate, 308.26 K | 0.00531
in n-butyl acetate, 313.27 K | 0.00594
in n-butyl acetate, 318.18 K | 0.00657
in n-butyl acetate, 323.22 K | 0.00724
in n-butyl acetate, 328.24 K | 0.00792
in n-butyl acetate, 333.19 K | 0.0086
in n-butyl acetate, 338.28 K | 0.00933
in n-butyl acetate, 343.25 K | 0.0101
in n-butyl acetate, 348.24 K | 0.0108
in n-butyl acetate, 353.26 K | 0.0116
in water, 283.18 K | 0.00115
in water, 288.26 K | 0.00129
in water, 293.27 K | 0.00152
in water, 298.21 K | 0.00179
in water, 303.19 K | 0.00211
in water, 308.22 K | 0.0025
in water, 313.19 K | 0.003
in water, 318.29 K | 0.00367
in water, 323.18 K | 0.00451
in water, 328.31 K | 0.00569
in water, 333.22 K | 0.00724
in water, 338.18 K | 0.00943
in water, 343.17 K | 0.0126
in water, 348.16 K | 0.0172
in water, 353.28 K | 0.0241
